How the values were obtained:
[1] = Bovine cornea penetration, MSM as enhancer, methylene blue as active (Example 9); format: in vitro ADME
Text: In this example the same principal study design and protocol was used as described in Example 8. In this experiment, we selected methylene blue again as the species for which permeation enhancement was desired; however, as tissue model we selected bovine cornea. The bovine cornea was dissected from bovine eyes procured from slaughterhouses. We selected bovine cornea tissue as the test membrane because it is known to be a very difficult membrane to penetrate. Bovine cornea is about 4-6 times thicker than the human corneal membrane.

[2] = Intestinal membrane permeation, MSM as enhancer, methylene blue as active (Example 8); format: in vitro ADME, porcine
Text: In this experiment we selected methylene blue as the species for which permeation enhancement was desired. As tissue model for this experiment we selected porcine intestinal membrane. A small glass vial was filled with test solution and capped with the test membrane (tissue layer of defined thickness). The membrane tissue was hold in place with a rubber O-ring and a screw cap of defined surface area opening. This test unit was immersed into a large glass vial filled with receptor medium. From this large glass vial, small sample receptor medium volumes were periodically removed for analysis.

[3] = Methylene blue permeation through MSM pre-treated porcine intestinal membrane (Example 17); format: in vitro ADME
Protocol: This experiment was designed to investigate if there is a long-lasting enhancement effect of MSM, i.e., if there is a long-lasting disruption of membrane permeability after the formula was removed or washed-out after application.
Methylene blue was the active. The tissue model was porcine intestinal membrane, which was pre-treated. In this experiment all membranes were soaked for 24 hours in a MSM containing pre-treatment solution. […] After the 24-hour soaking period, “Test A” membrane was thoroughly washed, while “Test B” membrane was only briefly rinsed. Those membrane specimens were then mounted as described earlier on methylene blue containing glass vials, which were then immersed as described earlier into a larger glass vial containing receptor medium containing. Only the MSM-enhanced donor solution contained, besides methylene blue, also MSM for enhancement purposes. • Control: No MSM in 24-hour pre-treatment, no MSM enhancer in donor • Test A: 24-hour MSM pretreatment w/thorough washing, no MSM enhancer • Test B: 24-hour MSM pretreatment w/brief rinsing, no MSM enhancer • MSM-enhanced: No MSM in 24-hour pre-treatment, w/MSM enhancer

CN(C)c1ccc2nc3ccc(=[N+](C)C)cc-3sc2c1 [methylene blue]
enhancement factor of cumulative permeation when MSM is present in the donor solution ([1]; MSM 27 mg/mL versus control): > 3
lag time ([1]; MSM present in the donor solution): less than 12 hours
Absorbance @ 668 nm of receptor medium (methylene blue permeation) ([1]; Time 43.5 Hr, Control: no MSM): 0.024
Absorbance @ 668 nm of receptor medium (methylene blue permeation) ([1]; Time 43.5 Hr, MSM 27 mg/mL in donor): 0.093
Absorbance @ 668 nm of receptor medium (methylene blue permeation) ([1]; Time 52.75 Hr, Control: no MSM): 0.03
Absorbance @ 668 nm of receptor medium (methylene blue permeation) ([1]; Time 52.75 Hr, MSM 27 mg/mL in donor): 0.13
Absorbance @ 668 nm of receptor medium (methylene blue permeation) ([1]; Time 65 Hr, Control: no MSM): 0.035
Absorbance @ 668 nm of receptor medium (methylene blue permeation) ([1]; Time 65 Hr, MSM 27 mg/mL in donor): 0.163
Absorbance @ 668 nm of receptor medium (methylene blue permeation) ([1]; Time 75.5 Hr, Control: no MSM): 0.042
Absorbance @ 668 nm of receptor medium (methylene blue permeation) ([1]; Time 75.5 Hr, MSM 27 mg/mL in donor): 0.195
Absorbance @ 668 nm of receptor medium (methylene blue permeation) ([1]; Time 89 Hr, Control: no MSM): 0.057
Absorbance @ 668 nm of receptor medium (methylene blue permeation) ([1]; Time 89 Hr, MSM 27 mg/mL in donor): 0.213
Absorbance @ 668 nm of receptor medium (methylene blue permeation) ([1]; Time 97.5 Hr, Control: no MSM): 0.076
Absorbance @ 668 nm of receptor medium (methylene blue permeation) ([1]; Time 97.5 Hr, MSM 27 mg/mL in donor): 0.265
lag time ([1]; without MSM): about 24 hours
enhancement factor of cumulative permeation when MSM is present in the donor solution ([2]; MSM 27 mg/mL versus control): ~2
Absorbance at 668 nm of receptor medium (methylene blue permeation) ([2]; Time 0.55 Hr, Control: no MSM): 0.021
Absorbance at 668 nm of receptor medium (methylene blue permeation) ([2]; Time 0.55 Hr, MSM 27 mg/mL in donor): 0.023
Absorbance at 668 nm of receptor medium (methylene blue permeation) ([2]; Time 1.9 Hr, Control: no MSM): 0.061
Absorbance at 668 nm of receptor medium (methylene blue permeation) ([2]; Time 1.9 Hr, MSM 27 mg/mL in donor): 0.176
Absorbance at 668 nm of receptor medium (methylene blue permeation) ([2]; Time 2.9 Hr, Control: no MSM): 0.162
Absorbance at 668 nm of receptor medium (methylene blue permeation) ([2]; Time 2.9 Hr, MSM 27 mg/mL in donor): 0.323
Absorbance at 668 nm of receptor medium (methylene blue permeation) ([2]; Time 4 Hr, Control: no MSM): 0.234
Absorbance at 668 nm of receptor medium (methylene blue permeation) ([2]; Time 4 Hr, MSM 27 mg/mL in donor): 0.433
Absorbance at 668 nm of receptor medium (methylene blue permeation) ([2]; Time 5.7 Hr, Control: no MSM): 0.283
Absorbance at 668 nm of receptor medium (methylene blue permeation) ([2]; Time 5.7 Hr, MSM 27 mg/mL in donor): 0.563
Absorbance at 668 nm of receptor medium (methylene blue permeation) ([2]; Time 6.9 Hr, Control: no MSM): 0.408
Absorbance at 668 nm of receptor medium (methylene blue permeation) ([2]; Time 6.9 Hr, MSM 27 mg/mL in donor): 0.738
permeation rate of enhanced solution relative to control ([3]; MSM 50 mg/mL in donor): approximately 2 times
permeation through MSM-pretreated membrane versus control ([3]; MSM pretreatment, brief rinsing, no MSM in donor): slightly higher
remaining enhancement after thorough washing of MSM-pretreated membrane ([3]; MSM pretreatment, thorough washing, no MSM in donor): no detectable remaining enhancement effect
Absorbance @ 668 nm of receptor medium (methylene blue permeation) ([3]; Time 0.27, Control: no MSM pre-treatment, no MSM enhancer): 0.01
Absorbance @ 668 nm of receptor medium (methylene blue permeation) ([3]; Time 0.27, Test A: MSM pretreatment w/thorough washing, no MSM enhancer): 0.01
Absorbance @ 668 nm of receptor medium (methylene blue permeation) ([3]; Time 0.27, Test B: MSM pretreatment w/brief rinsing, no MSM enhancer): 0.019
Absorbance @ 668 nm of receptor medium (methylene blue permeation) ([3]; Time 0.50, Control: no MSM pre-treatment, no MSM enhancer): 0.025
Absorbance @ 668 nm of receptor medium (methylene blue permeation) ([3]; Time 0.50, MSM-enhanced: no pre-treatment, MSM 50 mg/mL in donor): 0.06
Absorbance @ 668 nm of receptor medium (methylene blue permeation) ([3]; Time 0.50, Test A: MSM pretreatment w/thorough washing, no MSM enhancer): 0.031
Absorbance @ 668 nm of receptor medium (methylene blue permeation) ([3]; Time 0.50, Test B: MSM pretreatment w/brief rinsing, no MSM enhancer): 0.041
Absorbance @ 668 nm of receptor medium (methylene blue permeation) ([3]; Time 0.75, Control: no MSM pre-treatment, no MSM enhancer): 0.037
Absorbance @ 668 nm of receptor medium (methylene blue permeation) ([3]; Time 0.75, Test A: MSM pretreatment w/thorough washing, no MSM enhancer): 0.043
Absorbance @ 668 nm of receptor medium (methylene blue permeation) ([3]; Time 0.75, Test B: MSM pretreatment w/brief rinsing, no MSM enhancer): 0.055
Absorbance @ 668 nm of receptor medium (methylene blue permeation) ([3]; Time 1.00, Control: no MSM pre-treatment, no MSM enhancer): 0.052
Absorbance @ 668 nm of receptor medium (methylene blue permeation) ([3]; Time 1.00, MSM-enhanced: no pre-treatment, MSM 50 mg/mL in donor): 0.13
Absorbance @ 668 nm of receptor medium (methylene blue permeation) ([3]; Time 1.00, Test A: MSM pretreatment w/thorough washing, no MSM enhancer): 0.064
Absorbance @ 668 nm of receptor medium (methylene blue permeation) ([3]; Time 1.00, Test B: MSM pretreatment w/brief rinsing, no MSM enhancer): 0.079
Absorbance @ 668 nm of receptor medium (methylene blue permeation) ([3]; Time 1.50, Control: no MSM pre-treatment, no MSM enhancer): 0.078
Absorbance @ 668 nm of receptor medium (methylene blue permeation) ([3]; Time 1.50, MSM-enhanced: no pre-treatment, MSM 50 mg/mL in donor): 0.204
Absorbance @ 668 nm of receptor medium (methylene blue permeation) ([3]; Time 1.50, Test A: MSM pretreatment w/thorough washing, no MSM enhancer): 0.089
Absorbance @ 668 nm of receptor medium (methylene blue permeation) ([3]; Time 1.50, Test B: MSM pretreatment w/brief rinsing, no MSM enhancer): 0.118
Absorbance @ 668 nm of receptor medium (methylene blue permeation) ([3]; Time 2.00, Control: no MSM pre-treatment, no MSM enhancer): 0.114
Absorbance @ 668 nm of receptor medium (methylene blue permeation) ([3]; Time 2.00, MSM-enhanced: no pre-treatment, MSM 50 mg/mL in donor): 0.281
Absorbance @ 668 nm of receptor medium (methylene blue permeation) ([3]; Time 2.00, Test A: MSM pretreatment w/thorough washing, no MSM enhancer): 0.125
Absorbance @ 668 nm of receptor medium (methylene blue permeation) ([3]; Time 2.00, Test B: MSM pretreatment w/brief rinsing, no MSM enhancer): 0.16
Absorbance @ 668 nm of receptor medium (methylene blue permeation) ([3]; Time 24.00, Control: no MSM pre-treatment, no MSM enhancer): 0.92
Absorbance @ 668 nm of receptor medium (methylene blue permeation) ([3]; Time 24.00, MSM-enhanced: no pre-treatment, MSM 50 mg/mL in donor): 1.393
Absorbance @ 668 nm of receptor medium (methylene blue permeation) ([3]; Time 24.00, Test A: MSM pretreatment w/thorough washing, no MSM enhancer): 0.939
Absorbance @ 668 nm of receptor medium (methylene blue permeation) ([3]; Time 24.00, Test B: MSM pretreatment w/brief rinsing, no MSM enhancer): 1.112

Reference: US20060177430A1, “Treatment of ocular disorders with ophthalmic formulations containing methylsulfonylmethane as a transport enhancer” (Chakshu Research Inc, priority 2002, published 2006)
